Assay results from patent publication US6774254B2, “Gold complexes” (National University of Singapore, priority 2000, dated 2004).

Tests used:
[1] = test system: Daudi (B-cell lymphoma); assay: human suspension tumor cell line assay, Daudi; format: cell-based; settings: 2 h exposure, cells counted after 5 days; read-out: cytotoxicity IC50, Daudi
Method: (§1) The human suspension tumor cell line assay determines the ability of a compound to inhibit the cells' ability to divide in vitro after a two hour exposure to the compound. The panel of human suspension tumor cell lines consist of Raji (B-cell lymphoma), Daudi (B-cell lymphoma), P3HR-1(B-cell lymphoma), and Molt-4 (T-cell leukemia). The cytotoxicity tests were carried out in vitro according to the following protocol:
(§2) Cryopreserved tumor cells were thawed and cultured in the media RPMI-1640 supplemented with 10% fetal calf serum (FCS) and 100 units/mL penicillin and 100 μg/mL streptomycin (“media R10”), in a 5% CO2 humidified incubator at 37° C. They were subcultured every three days in a 75 cm^2 tissue culture flask.
(§3) A hemocytometer with four 1×1×0.1 mm^3 cells was used to count the cell concentration of a specified cell suspension solution. Trypan Blue was used to determine the viability of the counted cells, as live cells can exclude the dye penetration.
(§4) Each of Raji, Daudi, P3HR-1 and Molt-4 cells were dispensed into 6-well petri plates with 30,000 cells per well and were labelled in groups of three. A drug solution with a specified concentration was freshly prepared by dilution of a gold complex solution (1 mM) in DMSO with the media R10. […] The number of cells in each well was counted and the average value of triplicate samples were determined for each drug concentration.

[2] = test system: Molt-4 (T-cell leukemia); assay: human suspension tumor cell line assay, Molt-4; format: cell-based; settings: 2 h exposure, cells counted after 5 days; read-out: cytotoxicity IC50, Molt-4
Method: as §1, §2, §3, §4

[3] = test system: P3HR-1 (B-cell lymphoma); assay: human suspension tumor cell line assay, P3HR-1; format: cell-based; settings: 2 h exposure, cells counted after 5 days; read-out: cytotoxicity IC50, P3HR-1
Method: as §1, §2, §3, §4

[4] = test system: Raji (B-cell lymphoma); assay: human suspension tumor cell line assay, Raji; format: cell-based; settings: 2 h exposure, cells counted after 5 days; read-out: cytotoxicity IC50, Raji
Method: as §1, §2, §3, §4

[5] = test system: Mahlavu (liver cancer); assay: cytotoxicity against human adherent tumor cell line Mahlavu; format: cell-based; settings: four hours exposure, cells counted after 5 days
Method: In addition, cytotoxicities of (Sp)-1 and (Rp)-1 against a human adherent tumor cell line, Mahlavu (liver cancer), were also evaluated according to the following protocol:
Cryopreserved Mahlavu cells were thawed and cultured as a monolayer in the media M10 (Dulbecco's modified eagle's medium supplemented with 10% FCS and 100 units/mL penicillin and 100 μg/mL streptomycin) in a 75 cm^2 tissue culture flask. The flask was kept in a 5% CO2 humidified incubator at 37° C. Since the cells attached strongly to the bottom of culture flask, trypsin solution in PBS was used to detach the cells and then the Mahlavu cells were washed and counted as suspension cells.
10,000 cells were placed into each well of 6-well petri plates and incubated overnight to allow attachment to the plate. Triplicate samples of cells were allowed to react with the gold(I) complexes at three concentrations for four hours, followed by removal of the media. As before, a control with no drug treatment was included. The plates were then washed once with PBS(5 mL) and fresh media M10 (3 mL) was added. The plates were incubated at 37° C. in a CO2 incubator for 5 days. The Mahlavu cells In each well were trypsinized and counted as usual.
The IC50 values of (Sp)-I and (Rp)-I against this adherent tumor cell line were 6 and 8 μM, respectively. The IC50 values were determined as described above.

[6] = test system: K36 lymphoma (T-cell lymphoma); assay: in vivo anti-tumor activity, K36 lymphoma in AKR mice (primary screen); settings: at MTTD, i.p. Day 1-7, tumor weights Day 8-11
Method: (§5) The in vivo anti-tumor activities of the phosphino-gold(I) compounds were evaluated using a murine tumor model, K36 lymphoma (T-cell lymphoma), inoculated subcutaneously into the AKR inbred mice. K36 lymphoma is a transformed cell line which originated from the AKR mice infected with murine leukemic retrovirus. The K36 lymphoma cells are naturally tumorigenic in syngenic AKR mice and is non-immunogenic to the host mice. The in vivo tests were carried out according to the following protocol:
Day 0: K36 lymphoma cells were washed with phosphate-buffered saline (PBS) for three times and suspended in RPMI 1640 medium at the concentration of 10×10^6 cells/mL 10^6 cells in 0.1 mL of the medium were implanted subcutaneously into each of the two flanks of inbred AKR mice with a ½-in, 28-gauge, 1-mL syringe. The mice were then randomly distributed into control and treatment groups with 5 mice/group.
Day 1-7: The desired dose of a test agent was dissolved in a minimum amount (<50 μL) of dimethylacetamide (DMA), followed by addition of Cremaphor_EL (polyethoxylated castor oil, <30 μL) with mixing. Saline was added to dilute the drug solution and the desired dose was delivered in a volume of 5×0.3 mL for one group of mice (5 mice per group). In this case, the final concentration of dimethylacetamide was less than 3.3% and that of the carrier less than 2%. Formulation of a test agent was carried out just before injection into the animals. The test agent was injected intraperitoneally into the treatment groups of mice twice a day following the flexible schedule as recommended in the literature (Corbett, T. H.; Valeriote, F. A; LoRusso, P.; Polin, L; et. al. In “Anticancer Drug Development Guide: Preclinical Screening, Clinical Trials, and Approval”, (Ed. Teicher, B. A.), Humana Press Inc., Totowa, N.J., 1997 p 75-99.) to reach the most tolerated drug dose.
(§6) Day 8-11: Tumor weights were estimated from two-dimensional measurement, following the formula:
(§7) Tumor weight (in mg)=(a×b^2)/2,
(§8) wherein a and b are tumor length and width (in mm), respectively. The usual T/C value was used to assess the in vivo anti-tumor activity. T refers to the total tumor weight of the treatment group (including zeros), whereas, C refers to the total tumor weight of the non-treatment control group (including zeros). According to the NCI (National Cancer Institute in USA) standard, a T/C value of 42% is considered significant anti-tumor activity.
Furthermore, two compounds cisplatin (cis-diaminedichloroplatinum(II)) and [Au(dppe)2]Cl (dppe: 1,2-bis(diphenylphosphino)ethane) with known anti-tumor activities were also included in the In vivo test Table 2 summarizes the anti-tumor activities of (Sp)-1 and (Rp)-1.

[7] = test system: K36 lymphoma; assay: secondary in vivo evaluation, K36 lymphoma at three dosage levels; set-up: species or system AKR mice
Method: as §5
The mice were then randomly distributed into control and treatment groups with 5 mice/group.
Day 1-7: The desired dose of a test agent was dissolved in a minimum amount (<50 μL) of dimethylacetamide (DMA), followed by addition of Cremaphor_EL (polyethoxylated castor oil, <30 μL) with mixing. Saline was added to dilute the drug solution and the desired dose was delivered in a volume of 5×0.3 mL for one group of mice (5 mice per group). […] Formulation of a test agent was carried out just before injection into the animals.
as §6, §7
as §8, with “zeros).” for “zeros). According to the NCI (National Cancer Institute in USA) standard, a T/C value of 42% is considered significant anti-tumor activity.”
In addition, three dose levels of 0.67 decrements were used in the secondary in vivo evaluation studies of (Sp)-1 and (Rp)-1 against the K36 lymphoma. The purpose of testing at multiple dosage levels is to exclude agents with exceptionally steep dose-response curves, where only the most tolerated dose is active.

[8] = test system: advanced K36 lymphoma; assay: advanced K36 lymphoma model, treatment from Day 7; format: in vivo, AKR mice; settings: for average ILS % (Increased Life Span): control average life span 21 days after tumour implantation; for anti-tumor activity against advanced K36 tumor model in words (FIG. 1): treatment from Day 7, i.p. twice a day; for MTTD in advanced K36 model: treatment from Day 7, up to 4 days
Method: On Day 0, AKR mice were injected with K36 lymphoma cells. On Day 7, mice were divided into control and treatment groups. Treatment groups were injected intraperitoneally with either cisplatin, (Sp)-1, or (Rp)-1. Control groups were […] treated with any of the above compounds. On each subsequent day, the 3 treatment groups were injected with the respective compounds twice a day. Tumor weights were estimated from two-dimensional measurements on each day.
The anti-tumor activities of (Sp)- and (Rp)-I were also assessed against advanced K36 lymphoma model. Also, the active positive control, cisplatin, was included in the evaluation.
The protocol design for this test was similar as described above except that drug administrations began on Day 7 (Day 0 is the date of implantation). At this stage, the tumor sizes on mice averaged around 9×8 mm and the estimated average tumor weight was about 300 mg. Due to the extremely fast growth of the K36 lymphoma (the double time is around 1 day), there was limited time (up to 4 days) to escalate the drug dosage to the most tolerated level, before the tumor became too big to give a positive response to any drug treatment.
The results are visualised in FIG. 1. […] They can markedly retard the tumor growth during the period of drug treatment and even after treatment. The average ILS % (Increased Life Span) of (Sp)-I and (Rp)-I was 48% and 31%, respectively (the average life span of the control group was 21 days after tumour implantation). Particularly, one mouse treated with (Sp)-I survived for 48 days after tumour implantation.

[9] = dose levels of 54 and 36 μmol/kg

| SMILES | IC50 [1] [nM] | IC50 [2] [nM] | IC50 [3] [nM] | IC50 [4] [nM] | IC50 [5] [nM] | T/C (tumor weight treated/control x 100) [6] [%] | T/C ([7]; dosage 24 μmol/kg) [%] | T/C ([7]; dosage 36 μmol/kg) [%] | T/C ([7]; dosage 54 μmol/kg) [%] | in vivo activity in words ([7]; dosage level of 24 μmol/kg) | in vivo activity in words [7, 9] | average ILS % (Increased Life Span) [8] [%] | survival of one treated mouse after tumour implantation ([8]; one mouse) [days] | anti-tumor activity against advanced K36 tumor model in words (FIG. 1) [8] | MTTD in advanced K36 model [8] [µmol/kg] |
| --- | --- | --- | --- | --- | --- | --- | --- | --- | --- | --- | --- | --- | --- | --- | --- |
| CCOC(=O)C1C(P(c2ccccc2)c2ccccc2)C2C(C)=C(C)C1P2c1ccccc1.[Cl][Au].[Cl][Au] [(Sp)-I, μ-{(1α,4α,5α(R),6β(S),7S)-5-(diphenylphosphino)-2,3-dimethyl-6-(ethoxycarbonyl)-7-phenyl-7-phosphabicyclo[2.2.1]hept-2-ene-P5,P7}bis[chlorogold(I)]] | 800 | 1000 | 500 | 500 | 6000 | 5 | 33 | 12 | 5 | moderate activity | highly active | 48 | 48 | significant anti-tumor activities | 32 |
| N.N.[Cl][Pt][Cl] [Cisplatin, cis-diaminedichloroplatinum(II), reference compound] | – | – | – | – | – | 6 | – | – | – | – | – | – | – | did not inhibit the growth of the advanced K36 lymphoma at all | 28 |
| CCOC(=O)C1C(P(c2ccccc2)c2ccccc2)C2C(C)=C(C)C1P2c1ccccc1.[Cl][Au].[Cl][Au] [(Rp)-I, μ-{(1α,4α,5α(S),6β(R),7R)-5-(diphenylphosphino)-2,3-dimethyl-6-(ethoxycarbonyl)-7-phenyl-7-phosphabicyclo[2.2.1]hept-2-ene-P5,P7}bis[chlorogold(I)]] | 500 | 1000 | 200 | 300 | 8000 | 6 | 38 | 14 | 6 | moderate activity | highly active | 31 | – | significant anti-tumor activities | 32 |
| [Au+].[Cl-].c1ccc(P(CCP(c2ccccc2)c2ccccc2)c2ccccc2)cc1.c1ccc(P(CCP(c2ccccc2)c2ccccc2)c2ccccc2)cc1 [[Au(dppe)2]Cl, reference compound] | – | – | – | – | – | 12 | – | – | – | – | – | – | – | – | – |
